These compounds were tested against T1, human Bradykinin B1 receptor (Homo sapiens, UniProt P46663) (assay: Calcium flux Assay (FLIPR) with recombinant CHO-K1 cells expressing human Bradykinin B1 receptor, in presence (hB1 IC50) or absence (hB1 free IC50) of 0.1% BSA). Details: in absence of 0.1% BSA, read-out: hB1 free IC50.
T1 construct: host or cells: CHO-K1
T1 sequence (P46663 1-353): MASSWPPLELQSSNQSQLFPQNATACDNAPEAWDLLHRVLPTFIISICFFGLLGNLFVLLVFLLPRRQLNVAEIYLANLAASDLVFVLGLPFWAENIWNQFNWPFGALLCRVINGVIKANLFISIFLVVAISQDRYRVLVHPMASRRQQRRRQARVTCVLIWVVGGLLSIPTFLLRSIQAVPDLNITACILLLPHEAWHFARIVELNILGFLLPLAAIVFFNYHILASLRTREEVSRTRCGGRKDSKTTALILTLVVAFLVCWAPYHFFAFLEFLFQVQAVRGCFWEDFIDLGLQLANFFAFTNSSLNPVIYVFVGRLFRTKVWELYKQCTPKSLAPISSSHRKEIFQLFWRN
Type: cell-based

Row | SMILES | IC50
1 | Cc1ccc(C2(C(=O)Nc3ccc(-n4cc(C(F)(F)F)nc4C)c(-c4nnn[nH]4)c3)CC2)c(F)c1 [Example 369, 1-(2-Fluoro-4-methylphenyl)-N-{4-[2-methyl-4-(trifluoromethyl)-1H-imidazol-1-yl]-3-(1H-tetrazol-5-yl)phenyl}cyclopro-panecarboxa-mide] | 1130 nM
2 | Cc1nc(C(F)(F)F)cn1-c1ccc(NC(=O)C2(c3ccc(C(F)(F)F)cc3F)CC2)cc1-c1nnn[nH]1 [Example 370, 1-[2-Fluoro-4-(trifluoromethyl)phenyl]-N-{4-[2-methyl-4-(trifluoromethyl)-1H-imidazol-1-yl]-3-(1H-tetrazol-5-yl)phenyl}cyclopro-panecarboxa-mide] | 873 nM
3 | CCc1ccn(-c2ccc(NC(=O)C3(c4ccc(C)cc4F)CC3)cc2-c2nnn[nH]2)n1 [Example 371, N-[4-(3-ethyl-1H-pyrazol-1-yl)-3-(1H-tetrazol-5-yl)phenyl]-1-(2-fluoro-4-methylphenyl)cyclo-propanecar-boxamide] | 282 nM
4 | CCc1ccn(-c2ccc(NC(=O)C3(c4ccc(C(F)(F)F)cc4F)CC3)cc2-c2nnn[nH]2)n1 [Example 372, N-[4-(3-Ethyl-1H-pyrazol-1-yl)-3-(1H-tetrazol-5-yl)phenyl]-1-[2-fluoro-4-(trifluoromethyl)phenyl]cyclopro-panecarboxamide] | 31.1 nM
5 | CCc1ccn(-c2ccc(NC(=O)C3(c4ccc(OC(F)(F)F)cc4F)CC3)cc2-c2nnn[nH]2)n1 [Example 373, N-[4-(3-Ethyl-1H-pyrazol-1-yl)-3-(1H-tetrazol-5-yl)phenyl]-1-[2-fluoro-4-(trifluoromethoxy)phenyl]cyclo-propanecarboxa-mide] | 24.2 nM
6 | CCc1ccn(-c2ccc(NC(=O)C3(c4cccc(Cl)c4)CC3)cc2-c2nnn[nH]2)n1 [Example 374, 1-(3-Chlorophenyl)-N-[4-(3-ethyl-1H-pyrazol-1-yl)-3-(1H-tetrazol-5-yl)phenyl]cyclopro-panecarboxa-mide] | 1890 nM
7 | CCc1cnn(-c2ccc(NC(=O)C3(c4ccc(C)cc4F)CC3)cc2-c2nnn[nH]2)c1 [Example 375, N-[4-(4-Ethyl-1H-pyrazol-1-yl)-3-(1H-tetrazol-5-yl)phenyl]-1-(2-fluoro-4-methylphenyl)cy-clopropanecar-boxamide] | 60.6 nM
8 | CCc1cnn(-c2ccc(NC(=O)C3(c4ccc(C(F)(F)F)cc4F)CC3)cc2-c2nnn[nH]2)c1 [Example 376, N-[4-(4-Ethyl-1H-pyrazol-1-yl)-3-(1H-tetrazol-5-yl)phenyl]-1-[2-fluoro-4-(trifluoromethyl)phenyl]cyclopro-panecarboxamide] | 12 nM
9 | CCc1cnn(-c2ccc(NC(=O)C3(c4ccc(OC(F)(F)F)cc4F)CC3)cc2-c2nnn[nH]2)c1 [Example 377, N-[4-(4-ethyl-1H-pyrazol-1-yl)-3-(1H-tetrazol-5-yl)phenyl]-1-[2-fluoro-4-(trifluoromethoxy)phenyl]cyclo-propanecarboxa-mide] | 6.57 nM
10 | CCc1cnn(-c2ccc(NC(=O)C3(c4cccc(Cl)c4)CC3)cc2-c2nnn[nH]2)c1 [Example 378, 1-(3-Chlorophenyl)-N-[4-(4-ethyl-1H-pyrazol-1-yl)-3-(1H-tetrazol-5-yl)phenyl]cyclopro-panecarboxa-mide] | 343 nM
11 | Cc1ccc(C2(C(=O)Nc3ccc(-n4ccc(C(C)(C)C)n4)c(-c4nnn[nH]4)c3)CC2)c(F)c1 [Example 379, N-[4-(3-tert-Butyl-1H-pyrazol-1-yl)-3-(1H-tetrazol-5-yl)phenyl]-1-(2-fluoro-4-methylphenyl)cy-clopropanecar-boxamide] | 257 nM
12 | CC(C)(C)c1ccn(-c2ccc(NC(=O)C3(c4ccc(OC(F)(F)F)cc4F)CC3)cc2-c2nnn[nH]2)n1 [Example 381, N-[4-(3-tert-Butyl-1H-pyrazol-1-yl)-3-(1H-tetrazol-5-yl)phenyl]-1-[2-fluoro-4-(trifluoromethoxy)phenyl]cyclo-propanecarboxa-mide] | 36.7 nM
13 | CC(C)(C)c1ccn(-c2ccc(NC(=O)C3(c4cccc(Cl)c4)CC3)cc2-c2nnn[nH]2)n1 [Example 382, N-[4-(3-tert-Butyl-1H-pyrazol-1-yl)-3-(1H-tetrazol-5-yl)phenyl]-1-(3-chlorophenyl)cyclo-propanecarbox-amide] | 768 nM
14 | O=C(Nc1ccc(-c2cc3ccccc3s2)c(-c2nnn[nH]2)c1)C1(c2cccc(Cl)c2)CC1 [Example 383, N-[4-(1-benzothiophen-2-yl)-3-(1H-tetrazol-5-yl)phenyl]-1-(3-chlorophenyl)cyclo-propanecarbox-amide] | 142 nM
15 | O=C(Nc1ccc(-c2cc3ccccc3s2)c(-c2nnn[nH]2)c1)C1(c2ccc(C(F)(F)F)cc2F)CC1 [Example 384, N-[4-(1-benzothiophen-2-yl)-3-(1H-tetrazol-5-yl)phenyl]-1-[2-fluoro-4-(trifluoromethyl)phenyl]cyclopro-panecarboxamide] | 14.9 nM
16 | O=C(Nc1ccc(-c2cc3ccccc3s2)c(-c2nnn[nH]2)c1)C1(c2ccc(F)c(F)c2)CC1 [Example 385, N-[4-(1-benzothiophen-2-yl)-3-(1H-tetrazol-5-yl)phenyl]-1-(3,4-difluorophenyl)cyclo-propanecar-boxamide] | 54.7 nM
17 | O=C(Nc1ccc(-n2ccc(CC(F)(F)F)n2)c(-c2nnn[nH]2)c1)C1(c2cccc(Cl)c2)CC1 [Example 386, 1-(3-chlorophenyl)-N-{3-(1H-tetrazol-5-yl)-4-[3-(2,2,2-trifluoroethyl)-1H-pyrazol-1-yl]phenyl}cyclopro-panecarboxa-mide] | 146 nM
18 | Cc1ccc(C2(C(=O)Nc3ccc(-n4ccc(CC(F)(F)F)n4)c(-c4nnn[nH]4)c3)CC2)c(F)c1 [Example 388, 1-(2-fluoro-4-methylphenyl)-N-{3-(1H-tetrazol-5-yl)-4-[3-(2,2,2-trifluoroethyl)-1H-pyrazol-1-yl]phenyl}cyclopro-panecarboxa-mide] | 33.4 nM
19 | O=C(Nc1ccc(-n2cc(Cl)cn2)c(-c2nnn[nH]2)c1)C1(c2cccc(Cl)c2)CC1 [Example 391, 1-(3-chlorophenyl)-N-[4-(4-chloro-1H-pyrazol-1-yl)-3-(1H-tetrazol-5-yl)phenyl]cyclopro-panecarboxa-mide] | 1890 nM

The next lines start with the values.

Row | IC50 | SMILES
20 | 187 nM | Cc1ccc(C2(C(=O)Nc3ccc(-n4cc(Cl)cn4)c(-c4nnn[nH]4)c3)CC2)c(F)c1 [Example 393, N-[4-(4-chloro-1H-pyrazol-1-yl)-3-(1H-tetrazol-5-yl)phenyl]-1-(2-fluoro-4-methylphenyl)cy-clopropanecar-boxamide]
21 | 68.1 nM | O=C(Nc1ccc(-n2cc(Cl)cn2)c(-c2nnn[nH]2)c1)C1(c2ccc(C(F)(F)F)cc2F)CC1 [Example 394, N-[4-(4-chloro-1H-pyrazol-1-yl)-3-(1H-tetrazol-5-yl)phenyl]-1-[2-fluoro-4-(trifluoromethyl)phenyl]cyclopro-panecarboxamide]
22 | 16.2 nM | O=C(Nc1ccc(-n2cc(Cl)cn2)c(-c2nnn[nH]2)c1)C1(c2ccc(OC(F)(F)F)cc2F)CC1 [Example 395, N-[4-(4-chloro-1H-pyrazol-1-yl)-3-(1H-tetrazol-5-yl)phenyl]-1-[2-fluoro-4-(trifluoromethoxy)phenyl]cyclo-propanecarboxa-mide]
23 | 30.7 nM | CC(C)c1cnn(-c2ccc(NC(=O)C3(c4cccc(Cl)c4)CC3)cc2-c2nnn[nH]2)c1 [Example 396, 1-(3-chlorophenyl)-N-[4-(4-isopropyl-1H-pyrazol-1-yl)-3-(1H-tetrazol-5-yl)phenyl]cyclopro-panecarboxa-mide]
24 | 38.5 nM | CC(C)c1cnn(-c2ccc(NC(=O)C3(c4ccc(F)c(F)c4)CC3)cc2-c2nnn[nH]2)c1 [Example 397, 1-(3,4-difluorophenyl)-N-[4-(4-isopropyl-1H-pyrazol-1-yl)-3-(1H-tetrazol-5-yl)phenyl]cyclopro-panecarboxa-mide]
25 | 20.6 nM | Cc1ccc(C2(C(=O)Nc3ccc(-n4cc(C(C)C)cn4)c(-c4nnn[nH]4)c3)CC2)c(F)c1 [Example 398, 1-(2-fluoro-4-methylphenyl)-N-[4-(4-isopropyl-1H-pyrazol-1-yl)-3-(1H-tetrazol-5-yl)phenyl]cyclopro-panecarboxa-mide]
26 | 25.4 nM | CC(C)(C)c1cn(-c2ccc(NC(=O)C3(c4cccc(Cl)c4)CC3)cc2-c2nnn[nH]2)cn1 [Example 400, N-[4-(4-tert-butyl-1H-imidazol-1-yl)-3-(1H-tetrazol-5-yl)phenyl]-1-(3-chlorophenyl)cy-clopropanecarbox-amide]
27 | 34.5 nM | CC(C)(C)c1cn(-c2ccc(NC(=O)C3(c4ccc(F)c(F)c4)CC3)cc2-c2nnn[nH]2)cn1 [Example 401, N-[4-(4-tert-butyl-1H-imidazol-1-yl)-3-(1H-tetrazol-5-yl)phenyl]-1-(3,4-difluorophenyl)cy-clopropanecar-boxamide]
28 | 25.3 nM | Cc1ccc(C2(C(=O)Nc3ccc(-n4cnc(C(C)(C)C)c4)c(-c4nnn[nH]4)c3)CC2)c(F)c1 [Example 402, N-[4-(4-tert-butyl-1H-imidazol-1-yl)-3-(1H-tetrazol-5-yl)phenyl]-1-(2-fluoro-4-methylphenyl)cy-clopropanecar-boxamide]
29 | 20.6 nM | CC(C)(C)c1cn(-c2ccc(NC(=O)C3(c4ccc(C(F)(F)F)cc4F)CC3)cc2-c2nnn[nH]2)cn1 [Example 403, N-[4-(4-tert-butyl-1H-imidazol-1-yl)-3-(1H-tetrazol-5-yl)phenyl]-1-[2-fluoro-4-(trifluoromethyl)phenyl]cyclopro-panecarboxamide]
30 | 1390 nM | CCC1CCN(c2ccc(NC(=O)C3(c4cccc(Cl)c4)CC3)cc2-c2nnn[nH]2)C1=O (stereo not drawn) [Example 405, 1-(3-chlorophenyl)-N-[4-(3-ethyl-2-oxopyrrolidin-1-yl)-3-(1H-tetrazol-5-yl)phenyl]cyclopro-panecarboxa-mide]
